Measured values: US6624317B1, “Taxoid conjugates as antimitotic and antitumor agents” (priority 2000, dated 2003)

Tests used:
renal cancer (CAKI-1) = experiment: in vitro cytotoxicity assay, CAKI-1; details: read-out: Cytotoxicity (ED50) CAKI-1; CAKI-1; drug exposure 3 days
Protocol: (§1) Biological Assay. The in vitro cytotoxicity assay was carried out according to procedures described in Rubinstein et al. (P. Ferguson et al., Cancer Res. 1988, 48, 5956-5964). […] The human tumor cell line panel consisted of epiderimoid carcinoma of the nasopharynx (KB), lung carcinoma (A-549), ileocecal carcinoma (HCT-8), renal cancer (CAKI-1), breast cancer (MCF-7), melanoma cancer (SKMEL-2), and ovarian cancer (1A9). The drug resistant cell line panel consisted of three KB-derivatives, -7d, -CPT, and -VCR. The properties of these cells are described elsewhere (P. Ferguson et al., Cancer Res. 1988, 48, 5956-5964; D. Beidler et al., Cancer Res. 1996, 56, 345-353). […] They were a generous gift of Dr. P. Giannakakou (P. Giannakakou et al., J. Biol. Chem. 1997, 27, 17118-17125). Cells were cultured at 37° C. in RPMI-1640 with 100 ug/mL kanamycin and 10% (v/v) fetal bovine serum in a humidified atmosphere containing 5% CO2. Initial seeding densities varied among the cell lines to ensure a final absorbance of 1-2.5 A562 units. Drug exposure was for 3 days, and the ED50 value, the drug concentration that reduced the absorbance by 50%, was interpolated from dose-response data.

Colon cell lines = experiment: NCI human tumor cell lines, colon; type: cell-based; details: average over all cell lines of the tumor type; data provided by the NCI
breast cell lines = experiment: NCI human tumor cell lines, breast; type: cell-based; details: average over all cell lines of the tumor type; data provided by the NCI
renal cell lines = experiment: NCI human tumor cell lines, renal; type: cell-based; details: average over all cell lines of the tumor type; data provided by the NCI
melanoma cell lines = experiment: NCI human tumor cell lines, melanoma; type: cell-based; details: average over all cell lines of the tumor type; data provided by the NCI
ovarian cancer (1A9) = experiment: in vitro cytotoxicity assay, 1A9; details: read-out: Cytotoxicity (ED50) 1A9 (OVCAR); 1A9 (OVCAR); drug exposure 3 days
Protocol: as §1

[1] = system: Non-small cell lung cancer cell lines; experiment: NCI human tumor cell lines, NSCL; type: cell-based; details: average over all cell lines of the tumor type; data provided by the NCI
[2] = system: ileocecal carcinoma (HCT-8); experiment: in vitro cytotoxicity assay, HCT-8; details: read-out: Cytotoxicity (ED50) HCT-8; HCT-8; drug exposure 3 days; NA = not active
Protocol: as §1

[3] = system: Central nervous system cancer cell lines; experiment: NCI human tumor cell lines, CNS; type: cell-based; details: average over all cell lines of the tumor type; data provided by the NCI
leukemia cell lines = experiment: NCI human tumor cell lines, leukemia; type: cell-based; details: average over all cell lines of the tumor type; data provided by the NCI
Topoisomerase II = Topoisomerase II activity assay (inhibition of topo II in vitro); type: biochemical; details: NA^1 not active at 50 uM, NA^2 not active at 100 uM
Source text: (§2) Protein-Linked DNA Break and Topoisomerase 11 Activity Assays. The procedures were done according to detailed published methods (K. Bastow et al., Bioorg. Med. Chem. 1997, 5, 1481-1488).

PAX-22 = experiment: cytotoxicity in paclitaxel-resistant 1A9 sub-line PAX-22; type: cell-based, human; details: PAX-22 paclitaxel-resistant 1A9 sub-line
Protocol: as §1
(§3) The newly synthesized taxoid-4′-O-demethyl epipodophyllotoxin conjugates were evaluated in house using standard cytotoxicity assays in human tumor (HTCL) and drug-resistant (DRCL) cell lines. Reference compounds were paclitaxel (1), cephalomannine (2), and epipodophyllotoxins [etoposide (5) and GL-331 (7), see FIG. 1]. The HTCL panel was comprised of KB, A549, HCT-8, CAKI-1, MCF-7, SK-MEL-2, and 1A9 cell lines. Two paclitaxel-resistant 1A9 sub-lines designated as PAX-10 and PAX-22 were also tested as part of the DRCL panel. Other resistant-cell lines were KB derivatives expressing various mechanisms or multi-drug resistance as described elsewhere (P. Ferguson et al., Cancer Res. 1988, 48, 5956-5964; D. Beidler et al., Cancer Res. 1996, 56, 345-353).

[4] = system: paclitaxel resistant cells; experiment: cytotoxicity against paclitaxel resistant cells (overall); type: cell-based, human; details: compared with the unconjugated components, Table 3
Protocol: as §1, §3

lung carcinoma (A-549) = experiment: in vitro cytotoxicity assay, A549; details: read-out: Cytotoxicity (ED50) A549; A549; drug exposure 3 days; NA = not active
Protocol: as §1

[5] = system: melanoma cancer (SKMEL-2); experiment: in vitro cytotoxicity assay, SK-MEL-2; details: read-out: Cytotoxicity (ED50) SK-MEL-2; SK-MEL-2; drug exposure 3 days; NA = not active
Protocol: as §1

KB-CPT = experiment: cytotoxicity in drug resistant cell line KB-CPT; type: cell-based, human; details: KB-CPT drug resistant KB derivative
Protocol: as §1, §3

prostate cell lines = experiment: NCI human tumor cell lines, prostate; type: cell-based; details: average over all cell lines of the tumor type; data provided by the NCI
[6] = system: epiderimoid carcinoma of the nasopharynx (KB); experiment: in vitro cytotoxicity assay, KB; type: cell-based, human; details: drug exposure 3 days
Protocol: as §1

KB-VCR = experiment: cytotoxicity in drug resistant cell line KB-VCR; type: cell-based, human; details: KB-VCR drug resistant KB derivative
Protocol: as §1, §3

PAX-10 = experiment: cytotoxicity in paclitaxel-resistant 1A9 sub-line PAX-10; type: cell-based, human; details: PAX-10 paclitaxel-resistant 1A9 sub-line
Protocol: as §1, §3

ovarian cell lines = experiment: NCI human tumor cell lines, ovarian; type: cell-based; details: average over all cell lines of the tumor type; data provided by the NCI
KB-7d = experiment: cytotoxicity in drug resistant cell line KB-7d; type: cell-based, human; details: KB-7d drug resistant KB derivative
Protocol: as §1, §3

breast cancer (MCF-7) = experiment: in vitro cytotoxicity assay, MCF-7; details: read-out: Cytotoxicity (ED50) MCF-7; MCF-7; drug exposure 3 days
Protocol: as §1

[7] = system: Cellular protein-DNA complex formation; experiment: Protein-linked DNA break assay (cellular protein-DNA complex formation); type: cell-based
Source text: as §2

[8] = system: approximately 60 human tumor cell lines; experiment: NCI cytotoxicity evaluation in approximately 60 human tumor cell lines (overall); type: cell-based; details: especially leukemia, colon, and prostate cell lines

SMILES: COc1cc([C@@H]2c3cc4c(cc3[C@@H](N=Cc3ccc(C(=O)O[C@@H](C(=O)O[C@H]5C[C@@]6(O)[C@@H](OC(=O)c7ccccc7)[C@@H]7[C@]8(OC(C)=O)CO[C@@H]8C[C@H](O)[C@@]7(C)C(=O)[C@H](OC(C)=O)C(=C5C)C6(C)C)[C@@H](NC(=O)c5ccccc5)c5ccccc5)cc3)[C@H]3COC(=O)[C@H]23)OCO4)cc(OC)c1O [Compound 12]
- EC50 (renal cancer (CAKI-1)): > 250 nM
- log GI50 Colon (Colon cell lines): −7.20
- log GI50 breast (breast cell lines): −6.56
- log GI50 renal (renal cell lines): −6.13
- log GI50 melanoma (melanoma cell lines): −6.29
- EC50 (ovarian cancer (1A9)): 30 nM
- log GI50 NSCL [1]: −6.58
- EC50 [2]: 540 nM
- log GI50 CNS [3]: −6.93
- log GI50 leukemia (leukemia cell lines): −7.60
- Inhibition of Topo II IC100 (Topoisomerase II): 100 µM
- Resistance Fold PAX-22 (PAX-22): 17
- activity against paclitaxel resistant cells (in words) [4]: enhanced activity against paclitaxel resistant cells
- EC50 (lung carcinoma (A-549)): 210 nM
- EC50 [5]: > 400 nM
- Resistance Fold KB-CPT (KB-CPT): 1
- log GI50 prostate (prostate cell lines): −7.22
- Cytotoxicity (ED50) KB [6]: 3 nM
- Resistance Fold KB-VCR (KB-VCR): 17
- Resistance Fold PAX-10 (PAX-10): 7
- log GI50 ovarian (ovarian cell lines): −6.55
- Resistance Fold KB-7d (KB-7d): 1
- EC50 (breast cancer (MCF-7)): 330 nM
- Cellular protein-DNA complex formation ([7]; Etoposide given as 100, NA^1 not active at 50 uM, NA^2 not active at 100 uM): 8 +/− 2%
- intracellular poisoning / stimulation of protein-DNA breaks in cells (in words) ([7]; in cells): intracellular poisons
- inhibitory effects against NCI tumor cell lines (in words) [8]: strongest inhibitory effects against a variety of tumor cell lines
